# Assay results taken from article PMC10512030, “Prolidase-proline oxidase axis is engaged in apoptosis induction by birch buds flavonol santin in endometrial adenocarcinoma cell line” (Frontiers in Molecular Biosciences, 2023).
# Like-named read-outs stand apart in the source and are kept apart here.
# Assays:
# Assay type in all cases: cell-based, human
# [1] = test system: HeLa cells; test: Apoptosis assay, annexin V-FITC / propidium iodide flow cytometry, HeLa; details: 48 h
# [2] = test system: breast epithelial cells MCF 10A; test: Cell viability MTT assay, MCF 10A; details: Homo sapiens, 48 h
# [3] = test system: Ishikawa cells; test: Apoptosis assay, annexin V-FITC / propidium iodide flow cytometry, Ishikawa; details: 48 h
# [4] = test system: intracellular ROS; test: Analysis of intracellular ROS with DCFDA; details: santin 1 h
# Procedure: The oxidation-sensitive dye, 2′, 7′-dichlorofluorescein diacetate (DCFDA, D6883, Sigma-Aldrich), was used to determine the formation of intracellular ROS. Assay is based on the diffusion of DCFDA into the cell, where it is deacetylated by cellular esterases to a non-fluorescent compound, which is later oxidised by ROS into highly fluorescent 2′, 7′-dichlorofluorescein. […] Cells were treated with santin at concentrations of 6.2, 12.5, and 25 μM for 1, 24, or 48 h. Culture medium was discarded and the cells were washed with PBS and incubated with 10 μM DCFDA at 37°C for 30 min. Cell images were taken with fluorescence microscope.
# [5] = test system: cervical adenocarcinoma HeLa cells; test: Cell viability neutral red uptake assay, HeLa; details: Homo sapiens
# [6] = test system: normal fibroblasts (dermal fibroblasts CCD25Sk); test: Cell viability neutral red uptake assay, fibroblasts; details: Homo sapiens, Fibroblast, read-out: IC50 values ± SD in neutral red uptake assay
# [7] = test system: prolidase; test: Western immunoblot of prolidase in treated cells; details: santin, 48 h
# Procedure: (§1) Adherent and floating cells were harvested and sonicated. Obtained homogenates were supplemented with 1% protease and phosphatase inhibitor cocktail (#78440, Thermo Fisher Scientific). The Lowry assay was performed to quantify protein content in the homogenates. Proteins (20–40 μg) were resolved on 7.5%, 10%, or 12% SDS-PAGE gels using the Mini-Protean Tetra system (Bio-Rad). Proteins were transferred to nitrocellulose membranes (Bio-Rad) using the Mini Trans-Blot Cell wet blotting system (Bio-Rad). Membranes were blocked with 5% skim milk for 1 h at room temperature and probed overnight at 4°C with primary antibodies. […] Membranes were incubated with ECL-HRP substrate (GE Healthcare), and the signal was detected using the BioSpectrum Imaging System (Ultra-Violet Products, Ltd.). Intensity of the bands was quantified by densitometric analysis using VisionWorks LS software (Ultra-Violet Products, Ltd.).
# [8] = test system: prolidase; test: Prolidase activity in homogenates of treated cells; details: 48 h
# Procedure: The activity of prolidase in cell homogenates was determined according to the method of ([Myara et al., 1982]). Briefly, prolidase was activated by overnight incubation of homogenates with 1 mM MnCl2 at 37°C. Then, the substrate (Gly-Pro, 100 mM) was added to each sample, followed by incubation at 37°C for 1 h. The reaction was stopped with […] trichloracetic acid and samples were then centrifuged at 15,000 × g for 10 min. After adding acetic acid and Chinard’s reagent to collected supernatant, the mixtures were incubated at 90°C for 10 min. Samples were allowed to come to room temperature and then absorbance was measured at 515 nm. Enzyme activity was reported as nanomoles of proline released from the synthetic substrate during 1 min/mg of total proteins of cell homogenate.
# [9] = test system: cervical adenocarcinoma HeLa cells; test: Cell viability MTT assay, HeLa; details: Homo sapiens, HeLa, HeLa
# [10] = test system: HeLa cells; test: Colony formation assay, HeLa; details: then fresh medium 7 days
# [11] = test system: proline oxidase; test: Western immunoblot of proline oxidase in treated cells; details: 48 h
# Procedure: as §1
# [12] = test system: p53; test: Western immunoblot of p53 in treated cells; details: 48 h; for expression of p53 (Western blot): Ishikawa cells
# Procedure: Adherent and floating cells were harvested and sonicated. Obtained homogenates were supplemented with 1% protease and phosphatase inhibitor cocktail (#78440, Thermo Fisher Scientific). The Lowry assay was performed to quantify protein content in the homogenates. Proteins (20–40 μg) were resolved on 7.5%, 10%, or 12% SDS-PAGE gels using the Mini-Protean Tetra system (Bio-Rad). Proteins were transferred to nitrocellulose membranes (Bio-Rad) using the Mini Trans-Blot Cell wet blotting system (Bio-Rad). Membranes were blocked with 5% skim milk for 1 h at room temperature and probed overnight at 4°C with primary antibodies. The following antibodies purchased from Cell Signaling Technology were used: anti-caspase-9 antibody (#9508, 1:1,000), anti-caspase-8 antibody (#9746, 1:1,000), anti-caspase-3 antibody (#9662, 1:1,000), anti-caspase-7 antibody (#12827, 1:1,000), anti-PARP antibody (#9542, 1:1,000) and anti-cleaved PARP antibody (#5625, 1:1,000); anti-proline oxidase antibody (sc-376401, 1:1,000) and anti-p53 antibody (sc-126, 1:500) were obtained from Santa Cruz Biotechnology; anti-prolidase antibody (STJ27369, 1:1,000) was purchased from St John’s Laboratory and anti-actin antibody (#A2066, 1:2,000) was obtained from Sigma-Aldrich. After extensive washes, a secondary antibody solution in 5% skim milk (anti-mouse IgG-HRP, Sigma-Aldrich, #A9044, 1:5,000 or anti-rabbit IgG-HRP, Sigma-Aldrich, #A9169, 1:5000) was added for 1 h at room temperature. Membranes were incubated with ECL-HRP substrate (GE Healthcare), and the signal was detected using the BioSpectrum Imaging System (Ultra-Violet Products, Ltd.). Intensity of the bands was quantified by densitometric analysis using VisionWorks LS software (Ultra-Violet Products, Ltd.).
# [13] = test system: endometrial adenocarcinoma Ishikawa cells; test: Cell viability neutral red uptake assay, Ishikawa; details: Homo sapiens
# [14] = test system: normal fibroblasts (dermal fibroblasts CCD25Sk); test: Cell viability MTT assay, fibroblasts; details: Homo sapiens, Fibroblast, Fibroblasts, read-out: IC50 values ± SD in MTT assay
# [15] = test system: Ishikawa cells; test: Colony formation assay, Ishikawa; details: then fresh medium 7 days
# [16] = 24 h, NAC treated (2 mM N-acetyl-L-cysteine preincubation 2 h), read-out: IC50, neutral red uptake assay
# [17] = 24 h, read-out: IC50 values ± SD in neutral red uptake assay
# [18] = 24 h, without NAC, read-out: IC50, neutral red uptake assay
# [19] = 48 h, NAC treated (2 mM N-acetyl-L-cysteine preincubation 2 h), read-out: IC50, neutral red uptake assay
# [20] = 48 h, read-out: IC50 values ± SD in neutral red uptake assay
# [21] = 48 h, without NAC, read-out: IC50, neutral red uptake assay
compound,measurement,setting,value
"COc1ccc(-c2oc3cc(O)c(OC)c(O)c3c(=O)c2OC)cc1 [santin, 5,7-dihydroxy-3,6,4′-trimethoxyflavone]","% early apoptotic cells (annexin V/PI plot, lower right quadrant)",[1]; santin 6.2 μM,27% ± 4%
same,"% late apoptotic cells (annexin V/PI plot, upper right quadrant)",[1]; santin 6.2 μM,30% ± 3%
same,"% early apoptotic cells (annexin V/PI plot, lower right quadrant)",[1]; santin 12.5 μM,39% ± 5%
same,"% late apoptotic cells (annexin V/PI plot, upper right quadrant)",[1]; santin 12.5 μM,38% ± 4%
same,IC50,[2],12.1 ± 1.7 µM
same,"% early apoptotic cells (annexin V/PI plot, lower right quadrant)",[3]; santin 6.2 μM,35% ± 4%
same,"% late apoptotic cells (annexin V/PI plot, upper right quadrant)",[3]; santin 6.2 μM,15% ± 2%
same,"% early apoptotic cells (annexin V/PI plot, lower right quadrant)",[3]; santin 12.5 μM,55% ± 5%
same,"% late apoptotic cells (annexin V/PI plot, upper right quadrant)",[3]; santin 12.5 μM,21% ± 3%
same,ROS generation (DCFDA fluorescence),[4]; HeLa cells,significant increase
same,ROS generation (DCFDA fluorescence),[4]; Ishikawa cells,massive ROS generation
same,IC50,[5]; [16],25.6 ± 2.4 µM
same,IC50,[5]; [17],5.5 ± 1.3 µM
same,IC50,[5]; [18],18.2 ± 2 µM
same,IC50,[5]; [19],11.6 ± 1.4 µM
same,IC50,[5]; [20],5.4 ± 0.8 µM
same,IC50,[5]; [21],6.9 ± 1.1 µM
same,IC50,[6]; 24 h,> 50 µM
same,IC50,[6]; 48 h,> 50 µM
same,prolidase expression (Western blot),[7]; HeLa cells,downregulated prolidase expression
same,prolidase expression (Western blot),[7]; Ishikawa cells,increased its level
same,decrease of prolidase activity (minimum value),"[8]; HeLa cells, 100 μM santin",71%
same,increase of prolidase activity (maximum),"[8]; Ishikawa cells, 50 μM santin",160%
same,IC50,"[9]; 24 h, 24 h, read-out: IC50 values ± SD in MTT assay",17.8 ± 2 µM
same,IC50,"[9]; 48 h, 48 h, read-out: IC50 values ± SD in MTT assay",7 ± 0.8 µM
same,IC50,"[9]; 48 h, negative control siRNA transfected cells, 48 h, read-out: IC50, MTT assay",7.3 ± 1.1 µM
same,IC50,"[9]; 48 h, non-transfected cells, 48 h, read-out: IC50, MTT assay",7.2 ± 0.9 µM
same,IC50,"[9]; 48 h, p53-silenced cells, 48 h, read-out: IC50, MTT assay",10.9 ± 1.9 µM
same,IC50,"[9]; 48 h, prolidase-silenced cells, 48 h, read-out: IC50, MTT assay",7.8 ± 1 µM
same,IC50,"[9]; 48 h, proline oxidase-silenced cells, 48 h, read-out: IC50, MTT assay",11.2 ± 1.3 µM
same,decrease of number of colonies,[10]; santin 6.2 μM for 48 h,49%
same,decrease of number of colonies,[10]; santin 12.5 μM for 48 h,85%
same,proline oxidase expression (Western blot),"[11]; HeLa cells, santin 6.2 and 12.5 μM",increased proline oxidase expression
same,proline oxidase expression (Western blot),"[11]; Ishikawa cells, santin",downregulated
same,p53 level (Western blot),"[12]; HeLa cells, santin 6.2–25 μM",significantly upregulated
same,expression of p53 (Western blot),[12]; santin 6.2–12.5 μM,slightly increased
same,expression of p53 (Western blot),[12]; santin 25–100 μM,gradually decreased
same,IC50,[13]; [16],25.6 ± 2.1 µM
same,IC50,[13]; [17],6.2 ± 1 µM
same,IC50,[13]; [18],12.7 ± 1.3 µM
same,IC50,[13]; [19],11 ± 1.4 µM
same,IC50,[13]; [20],5.9 ± 1.1 µM
same,IC50,[13]; [21],4.8 ± 1 µM
same,IC50,[14]; 24 h,> 50 µM
same,IC50,[14]; 48 h,> 50 µM
same,decrease of number of colonies,[15]; santin 6.2 μM for 48 h,53%
same,decrease of number of colonies,[15]; santin 12.5 μM for 48 h,84%
